According to patent US20110256557A1, “IDENTIFYING PARATHYROID HORMONE AGONISTS AND ANTAGONISTS” (DISCOVERYBIOMED, INC., priority 2008, published 2011):

Tests used:
axin-LRP6 binding = test: Co-IP of axin binding to LRP6 in HEK293 cells; format: cell-based; conditions: co-IP, HEK293 cells
Experimental: (§1) Cells were harvested in cavitation buffer (5 mM HEPES, pH 7.4, 3 mM MgCl2, 1 mM EGTA, 250 mM sucrose) containing protease and phosphatase inhibitors and homogenized by nitrogen cavitation (200 p.s.i., for 5 minutes) in a cell disruption bomb (Parr Instrument Co.; Moline, Ill.). The cell homogenate was centrifuged twice at 700 g for 10 minutes to pellet the nuclei. The supernatant was further centrifuged at 100,000 g (Beckman SW50.1 rotor) for 1 hour to separate the membrane and cytosol fractions, and the resulting membrane pellet was washed three times with cavitation buffer before use in the assays (Zhang et al., Biochem. J. 343:541-9 (1999)). Immunoprecipitation and Western blot analysis of cell lysates were performed as described previously (Wan et al., Am. J. Pathol. 166:1379-92 (2005)).

β-catenin = test: Western blot of cytosolic β-catenin in mouse calvarial primary preosteoblasts; format: cell-based; conditions: concentration- and time-dependent
Experimental: Osteoblasts were isolated by digestion of calvaria of newborn mice as described (Wang et al., J. Clin. Invest. 117:1616-26 (2007)). Briefly, calvaria were incubated with 10 ml of digestion solution containing 1.8 mg/ml of collagenase type I (Worthington Biochemical Corp.; Lakewood, N.J.) for 15 minutes at 37° C. under constant agitation. The supernatant was then harvested, replaced with fresh collagenase and the digestion repeated an additional 4 times. Digestion solutions containing the osteoblasts were pooled together. After centrifugation, osteoblasts were obtained and cultured in α-Minimal Essential Media (MEM) containing 10% FBS and 1% penicillin/streptomycin at 37° C. in a humidified incubator supplied with 5% CO2.
as §1, with “Immunoprecipitation and Western blot analysis of cell lysates were performed as described previously (Wan et al., Am. J. Pathol. 166:1379-92 (2005)).” left out

PTH1R = target: T1, PTH1R (Homo sapiens, UniProt Q03431); test: Co-immunoprecipitation of exogenous LRP5/LRP6 constructs with PTH1R in HEK293 cells; format: cell-based; conditions: HEK293 cells
T1 sequence (Q03431 27-593): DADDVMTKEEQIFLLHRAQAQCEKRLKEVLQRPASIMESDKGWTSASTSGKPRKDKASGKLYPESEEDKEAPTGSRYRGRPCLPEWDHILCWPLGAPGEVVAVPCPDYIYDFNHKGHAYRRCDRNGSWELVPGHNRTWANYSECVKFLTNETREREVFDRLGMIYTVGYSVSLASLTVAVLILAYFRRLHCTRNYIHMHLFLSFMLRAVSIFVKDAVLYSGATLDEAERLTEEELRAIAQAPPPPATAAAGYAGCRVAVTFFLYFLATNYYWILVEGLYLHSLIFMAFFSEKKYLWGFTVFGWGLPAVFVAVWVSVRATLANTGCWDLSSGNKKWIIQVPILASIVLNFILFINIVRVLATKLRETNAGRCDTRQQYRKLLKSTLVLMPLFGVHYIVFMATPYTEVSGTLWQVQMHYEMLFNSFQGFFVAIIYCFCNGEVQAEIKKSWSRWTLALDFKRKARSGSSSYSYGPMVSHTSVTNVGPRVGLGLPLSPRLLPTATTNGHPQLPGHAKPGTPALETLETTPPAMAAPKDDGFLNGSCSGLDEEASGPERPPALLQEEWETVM
Excerpt: PTH1R tagged with HA was subcloned into pcDNA3.1. cDNAs from human LRP5 (Mao et al., Mol. Cell. 7:801-9 (2001)) and LRP6 (Tamai et al., Nature 407:530-35 (2000)) tagged with HA and VSVG were subcloned into pCMV and pCS2^+, respectively. LRP6N+T (LRP6 N-terminal plus the transmembrane domain) and LRP6T+C (LRP6 transmembrane domain plus C-terminal) tagged with VSVG were subcloned into pCS2^+. LRP6N+1479m, LRP6N+1490m, LRP6N+1493m and LRP6N+1496m were generated by mutagenesis of either the serine (at amino acid 1490 or amino acid 1496) or threonine (at amino acid 1479 or amino acid 1493) to alanine LRP6N-IgG was generated by fusing the LRP6 extracellular domain with IgG (Tamai et al., Nature 407:530-35 (2000)). si-GFP (Wan et al., Am. J. Pathol. 166:1379-92 (2005)) and si-LRP6 plasmids were generated using a BS/U6 vector. Briefly, a 22-nucleotide oligo (oligo 1) corresponding to nucleotides 2981 to 3002 of the human LRP6 coding region was first inserted into the BS/U6 vector digested with ApaI (blunted) and HindIII. The inverted motif that contains the six-nucleotide spacer and five Ts (oligo 2) was then subcloned into the HindIII and EcoRI sites of the intermediate plasmid to generate BS/U6/LRP5/6.
as §1

Xenopus = test: LRP6-mediated secondary axis induction in Xenopus embryos; format: in vivo; conditions: ventral injection of PTH and PTH1R RNA with LRP6 RNA
Excerpt: RNAs for microinjection were synthesized using SP6 mMessage mMachine in vitro transcription kit (Ambion; Austin, Tex.). […] The doses of RNAs used were: 200 pg LRP6, 2 pg PTH and 50 pg PTH1R.

LRP6 = LRP6 phosphorylation at PPPSP motifs, western blotting with Ab1490, UMR-106 cells; format: cell-based, rat; conditions: UMR-106 cells, endogenous LRP6, Ab1490
Experimental: as §1
As phosphorylation of LRP6 at the PPPSP motifs plays a crucial role in activating downstream β-catenin signaling by Wnt, whether PTH induces phosphorylation of LRP6 at PPPSP motifs (Mao et al., Mol. Cell. 7:801-9 (2001); Tamai et al., Mol. Cell. 13:149-56 (2004); Davidson et al., Nature 438:867-72 (2005); Zeng et al., Nature 438:873-7 (2005)). Immunoprecipitated LRP6 from extracts of PTH-treated UMR-106 cells were monitored for their phosphorylation, by western blotting, with an antibody that recognizes phosphorylated PPPSP motifs (Ab1490) (Tamai et al., Mol. Cell. 13:149-56 (2004)). […] Phosphorylation of PPPSP motifs is required for axin recruitment from cytoplasm to LRP6 at cell membrane. […] Fz8CRD, a competitive inhibitor of the Wnt receptor Fz (Hsieh et al., Proc. Natl. Acad. Sci. USA 96:3546-55 (1999)), was used to exclude the possibility that these PTH effects are mediated through promotion of Wnts production or sensitization of Wnt-stimulated signaling. […] In contrast, LRP6N blocked PTH-stimulated LRP6 phosphorylation (FIG. 33).

binding of exogenous PTH1R to exogenous LRP6 (PTH1R): enhances | binding of LRP5 to PTH1R (PTH1R; exogenous LRP5 and PTH1R): did not enhance
Substance: Parathyroid hormone [PTH]
binding of axin to LRP6 (axin-LRP6 binding): rapidly increased | levels of β-catenin in the cytosol (β-catenin): enhanced | LRP6-induced secondary axis induction (Xenopus): enhanced | phosphorylation of LRP6 at the PPPSP motifs (LRP6): rapidly induced
